The values below come from patent US20240300936A1 (priority 2021, published 2024).

For this test, the system named is HELA cells. The test can be described thus: HELA cell proliferation assay (CellTitre-Glo, 6 days). It counts as cell-based. As to conditions: Homo sapiens, 144 h.
Where [1] appears, read: HELA cells, 6 days treatment, CellTitre-Glo, read-out: HeLa pIC50 (converted).
[2] abbreviates: HeLa, read-out: HeLa pIC50 (M) (converted).

Structures can show the parent of a compound that is named as a salt. Where two headings read alike, the source gives them in different places.

On to `Cn1ncc2ccc(-c3nc(N)nc(NC4(c5ccn(C(F)F)n5)CCC4)n3)cc21` [Example 82, N4-[1-[1-(Difluoromethyl)pyrazol-3-yl]cyclobutyl]-6-(1-methylindazol-6-yl)-1,3,5-triazine-2,4-diamine], for which the IC50 under setting [1] is 2.4e-06 M.

In the case of `Nc1nc(NCc2c(Cl)ccc(F)c2F)nc(-c2ccc3cn[nH]c3c2)n1` [Example 51, N2-[(6-chloro-2,3-difluoro-phenyl)methyl]-6-(1H-indazol-6-yl)-1,3,5-triazine-2,4-di amine], the IC50 under setting [1] is 1.48e-06 M.

As for `Cn1ncc2ccc(-c3nc(N)nc(NC(C)(C)c4nn(C(F)F)cc4Cl)n3)cc21` [Example 97, N4-[1-[4-chloro-1-(difluoromethyl)pyrazol-3-yl]-1-methyl-ethyl]-6-(1-methylindazol-6-yl)-1,3,5-triazine-2,4-diamine], the IC50 under setting [1] was 7.94e-07 M.

For `Nc1nc(NCc2cccc(F)c2F)nc(-c2ccc3cncn3c2)n1` [Example 30, N4-[(2,3-Difluorophenyl)methyl]-6-imidazo[1,5-a]pyridin-6-yl-1,3,5-triazine-2,4-dia mine], the IC50 under setting [1] is 1.55e-07 M.

With `Nc1nc(NC2(c3ccn(C(F)F)n3)CCC2)nc(-c2ccc3cn[nH]c3c2)n1` [Example 81, N2-[1-[1-(Difluoromethyl)pyrazol-3-yl]cyclobutyl]-6-(1H-indazol-6-yl)-1,3,5-tria zine-2,4-diamine], the IC50 under setting [1] is 2.14e-07 M.

For `Nc1nc(NCc2cccc(F)c2Cl)nc(-c2ccc3cn[nH]c3c2)n1` [Example 24, N2-[(2-chloro-3-fluoro-phenyl)methyl]-6-(1H-indazol-6-yl)-1,3,5-triazine-2,4-dia mine], under setting [1], the IC50 is 2.88e-07 M.

As to `Cc1cccc(CCNc2nc(N)nc(-c3ccc4cn[nH]c4c3)n2)n1` [Example 54, 6-(1H-indazol-6-yl)-N2-[2-(6-methyl-2-pyridyl)ethyl]-1,3,5-triazine-2,4-diamine], under setting [1], the IC50 was 1.66e-06 M.

`Nc1nc(NC2(c3nn(C(F)F)cc3Cl)CC2)nc(-c2ccc3cn[nH]c3c2)n1` [Example 84, N4-[1-[4-chloro-1-(difluoromethyl)pyrazol-3-yl]cyclopropyl]-6-(1H-indazol-6-yl)-1,3,5-triazine-2,4-diamine]: under setting [1], the IC50 was 6.46e-07 M.

Take `CC(C)(Nc1nc(N)nc(-c2ccc3cncn3c2)n1)c1ccccn1` [Example 72, 6-imidazo[1,5-a]pyridin-6-yl-N2-[1-methyl-1-(2-pyridyl)ethyl]-1,3,5-triazine-2,4-di amine]: the IC50 under setting [1] was 4.07e-07 M.

For the compound `Cc1ncc2ccc(-c3nc(N)nc(NC(C)(C)c4cccc(F)c4F)n3)cn12` [Example 39, N4-[1-(2,3-difluorophenyl)-1-methyl-ethyl]-6-(3-methylimidazo[1,5-a]pyridin-6-yl)-1,3,5-triazine-2,4-diamine], under setting [1], the IC50 was 4.17e-07 M.

With `Nc1nc(NCc2cccc(C(F)(F)F)n2)nc(-c2ccc3cn[nH]c3c2)n1` [Example 8, 6-(1H-indazol-6-yl)-N2-[[6-(trifluoromethyl)-2-pyridyl]methyl]-1,3,5-triazine-2,4-diamine], the IC50 under setting [1] is 9.33e-07 M.

As to `CC(C)(Nc1nc(N)nc(-c2ccc3cncn3c2)n1)c1ccn(C(F)F)n1` [Example 36, N4-[1-[1-(difluoromethyl)pyrazol-3-yl]-1-methyl-ethyl]-6-imidazo[1,5-a]pyridin-6-yl-1,3,5-triazine-2,4-diamine], the IC50 under setting [1] is 4.47e-08 M.

In the case of `CC(C)(Nc1nc(N)nc(-c2cc(F)c3cn[nH]c3c2)n1)c1ccn(C(F)F)n1` [Example 104, N2-[1-[1-(difluoromethyl)pyrazol-3-yl]-1-methyl-ethyl]-6-(4-fluoro-1H-indazol-6-yl)-1,3,5-triazine-2,4-diamine], under setting [1], the IC50 was 2.19e-07 M.

Take `CC(C)(Nc1nc(N)nc(-c2ccc3cn[nH]c3c2)n1)c1cccc(F)c1F` [Example 28, N2-[1-(2,3-difluorophenyl)-1-methyl-ethyl]-6-(1H-indazol-6-yl)-1,3,5-triazine-2,4-di amine]: the IC50 under setting [1] was 1.91e-07 M.

Consider `Nc1nc(-c2ccc3cn[nH]c3c2)nc(N2CCOCC2Cc2cccc(Cl)c2Cl)n1` (centres unmarked) [Example 3, 4-[3-[(2,3-dichlorophenyl)methyl]morpholin-4-yl]-6-(1H-indazol-6-yl)-1,3,5-triaz in-2-amine hydrochloride], for which the IC50 under setting [2] is 2.95e-06 M.

With `CC(C)(Nc1nc(N)nc(-c2ccc3cn[nH]c3c2)n1)c1cccc(C(F)(F)F)n1` [Example 4, 6-(1H-indazol-6-yl)-N2-[1-methyl-1-[6-(trifluoromethyl)-2-pyridyl]ethyl]-1,3,5-tr iazine-2,4-diamine hydrochloride], the IC50 under setting [2] is 1.7e-07 M.

For `Nc1nc(NCc2cccc(F)c2F)nc(-c2ccc3cn[nH]c3c2)n1` [Example 70, N2-[(2,3-difluorophenyl)methyl]-6-(1H-indazol-6-yl)-1,3,5-triazine-2,4-diamine], the IC50 under setting [1] is 1.15e-07 M.

In the case of `Nc1nc(NC2(c3ccn(C(F)F)n3)CC2)nc(-c2ccc3cncn3c2)n1` [Example 35, N4-[1-[1-(Difluoromethyl)pyrazol-3-yl]cyclopropyl]-6-imidazo[1,5-a]pyridin-6-yl-1,3,5-triazine-2,4-diamine], the IC50 under setting [1] was 1.48e-07 M.

Regarding `Cc1ncc2ccc(-c3nc(N)nc(NC(C)(C)c4ccn(C(F)F)n4)n3)cn12` [Example 37, N4-[1-[1-(difluoromethyl)pyrazol-3-yl]-1-methyl-ethyl]-6-(3-methylimidazo[1,5-a]pyridin-6-yl)-1,3,5-triazine-2,4-diamine], the IC50 under setting [1] is 3.55e-07 M.

For the compound `Nc1nc(NC2(c3cccc(F)c3F)CC2)nc(-c2ccc3cn[nH]c3c2)n1` [Example 23, N2-[1-(2,3-Difluorophenyl)cyclopropyl]-6-(1H-indazol-6-yl)-1,3,5-triazine-2,4-diamine], the IC50 under setting [1] was 2.24e-07 M.

Consider `CC(C)(Nc1nc(N)nc(-c2ccc3cn[nH]c3c2F)n1)c1ccn(C(F)F)n1` [Example 102, N2-[1-[1-(difluoromethyl)pyrazol-3-yl]-1-methyl-ethyl]-6-(7-fluoro-1H-indazol-6-yl)-1,3,5-triazine-2,4-diamine], for which the IC50 under setting [1] was 2.95e-07 M.

With `CN(c1nc(N)nc(-c2ccc3cncn3c2)n1)C(C)(C)c1ccn(C(F)F)n1` [Example 34, N4-[1-[1-(difluoromethyl)pyrazol-3-yl]-1-methyl-ethyl]-6-imidazo[1,5-a]pyridin-6-yl-N4-methyl-1,3,5-triazine-2,4-diamine], the IC50 under setting [1] was 7.76e-07 M.

Turning to `Cn1ncc2ccc(-c3nc(N)nc(NC(C)(C)c4ccn(C(F)F)n4)n3)cc21` [Example 101, N2-[1-[1-(difluoromethyl)pyrazol-3-yl]-1-methyl-ethyl]-6-(1-methylindazol-6-yl)-1,3,5-triazine-2,4-diamine], under setting [1], the IC50 was 2.57e-07 M.

On to `Nc1nc(NC2(c3ccn(C(F)F)n3)CC2)nc(-c2ccc3cn[nH]c3c2)n1` [Example 22, N2-[1-[1-(Difluoromethyl)pyrazol-3-yl]cyclopropyl]-6-(1H-indazol-6-yl)-1,3,5-triazine-2,4-diamine], for which the IC50 under setting [1] was 1.35e-07 M.

In the case of `Nc1nc(NC2COc3cccc(F)c32)nc(-c2ccc3cn[nH]c3c2)n1` (centres unmarked) [Example 5, N2-(4-fluoro-2,3-dihydrobenzofuran-3-yl)-6-(1H-indazol-6-yl)-1,3,5-triazine-2,4-diamine], the IC50 under setting [1] was 3.39e-06 M.

As to `Nc1nc(NC2COc3cc(F)cc(F)c32)nc(-c2ccc3cn[nH]c3c2)n1` (centres unmarked) [Example 90, N2-(4,6-Difluoro-2,3-dihydrobenzofuran-3-yl)-6-(1H-indazol-6-yl)-1,3,5-triazine-2,4-diamine], under setting [1], the IC50 was 1.55e-06 M.

With `Cc1ccc(CNc2nc(N)nc(-c3ccc4cn[nH]c4c3)n2)c(F)c1F` [Example 88, N2-[(2,3-Difluoro-4-methyl-phenyl)methyl]-6-(1H-indazol-6-yl)-1,3,5-triazine-2,4-diamine], the IC50 under setting [1] was 1.29e-06 M.

As to `CC(C)(Nc1nc(N)nc(-c2ccc3cn[nH]c3c2)n1)c1ccn(C(F)F)n1` [Example 60, N2-[1-[1-(difluoromethyl)pyrazol-3-yl]-1-methyl-ethyl]-6-(1H-indazol-6-yl)-1,3,5-tri azine-2,4-diamine], under setting [1], the IC50 was 3.47e-08 M.

`Nc1nc(NCc2cccc(F)c2Cl)nc(-c2ccc3cncn3c2)n1` [Example 73, N2-[(2-chloro-3-fluoro-phenyl)methyl]-6-imidazo[1,5-a]pyridin-6-yl-1,3,5-triazine-2,4-diamine]: the IC50 under setting [1] is 4.27e-07 M.

Take `CC(C)(Nc1nc(N)nc(-c2ccc3cn[nH]c3c2)n1)c1ccn(CCN2CCCC2)n1` [Example 83, 6-(1H-Indazol-6-yl)-N2-[1-methyl-1-[1-(2-pyrrolidin-1-ylethyl)pyrazol-3-yl]ethyl]-1,3,5-triazine-2,4-diamine hydrochloride]: the IC50 under setting [2] is 7.08e-07 M.

Regarding `Cn1ncc2ccc(-c3nc(N)nc(NC4(c5ccn(C(F)F)n5)CC4)n3)cc21` [Example 32, N4-[1-[1-(Difluoromethyl)pyrazol-3-yl]cyclopropyl]-6-(1-methylindazol-6-yl)-1,3,5-triazine-2,4-diamine], the IC50 under setting [1] was 1.29e-06 M.

Consider `CN(CCc1cccc(Cl)c1Cl)c1nc(N)nc(-c2ccc3cn[nH]c3c2)n1` [Example 43, N4-[2-(2,3-dichlorophenyl)ethyl]-6-(1H-indazol-6-yl)-N4-methyl-1,3,5-triazine-2,4-diamine], for which the IC50 under setting [1] was 2.09e-06 M.

For the compound `Nc1nc(NC2(c3ccccn3)CC2)nc(-c2ccc3cn[nH]c3c2)n1` [Example 6, 6-(1H-indazol-6-yl)-N2-[1-(2-pyridyl)cyclopropyl]-1,3,5-triazine-2,4-diamine], under setting [1], the IC50 was 5.89e-07 M.

For the compound `Nc1nc(NC2(c3c[nH]cn3)CC2)nc(-c2ccc3cn[nH]c3c2)n1` [Example 86, N2-[1-(1H-Imidazol-4-yl)cyclopropyl]-6-(1H-indazol-6-yl)-1,3,5-triazine-2,4-dia mine; 2,2,2-trifluoroacetate], the IC50 under setting [1] is 1e-05 M.

For the compound `CC(C)(Nc1nc(N)nc(-c2ccc3cn[nH]c3c2)n1)c1ccccn1` [Example 12, 6-(1H-indazol-6-yl)-N2-[1-methyl-1-(2-pyridyl)ethyl]-1,3,5-triazine-2,4-diamine hydrochloride], the IC50 under setting [2] was 1.74e-07 M.
